Experimental data taken from patent US11685732B2, “MYST family histone acetyltransferase inhibitors” (Epizyme, Inc., priority 2017, dated 2023).

Legend:
KAT-6A = KAT-6A (Homo sapiens (Human), UniProt Q92794); assay: KAT-6A biochemical inhibition assay (SAMDI mass spectrometry)
Procedure, shortened: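 Enzyme (12.5 nM final) pre-incubated with serially diluted compounds (2% DMSO final) in 50 mM Tris pH 8.0 with Tween20, gelatin and 1 mM DTT. Reaction started with 1 μM peptide substrate and 1 μM acetyl-CoA, run 90 min at 25 °C, quenched with 0.5% formic acid, read by SAMDI-TOF mass spectrometry; IC50 derived.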

KAT-7 = KAT-7 (Homo sapiens (Human), UniProt O95251); assay: KAT-7 biochemical inhibition assay (SAMDI mass spectrometry)
KAT-7, sequence (O95251 other isoform, or with tags, fused parts or gaps): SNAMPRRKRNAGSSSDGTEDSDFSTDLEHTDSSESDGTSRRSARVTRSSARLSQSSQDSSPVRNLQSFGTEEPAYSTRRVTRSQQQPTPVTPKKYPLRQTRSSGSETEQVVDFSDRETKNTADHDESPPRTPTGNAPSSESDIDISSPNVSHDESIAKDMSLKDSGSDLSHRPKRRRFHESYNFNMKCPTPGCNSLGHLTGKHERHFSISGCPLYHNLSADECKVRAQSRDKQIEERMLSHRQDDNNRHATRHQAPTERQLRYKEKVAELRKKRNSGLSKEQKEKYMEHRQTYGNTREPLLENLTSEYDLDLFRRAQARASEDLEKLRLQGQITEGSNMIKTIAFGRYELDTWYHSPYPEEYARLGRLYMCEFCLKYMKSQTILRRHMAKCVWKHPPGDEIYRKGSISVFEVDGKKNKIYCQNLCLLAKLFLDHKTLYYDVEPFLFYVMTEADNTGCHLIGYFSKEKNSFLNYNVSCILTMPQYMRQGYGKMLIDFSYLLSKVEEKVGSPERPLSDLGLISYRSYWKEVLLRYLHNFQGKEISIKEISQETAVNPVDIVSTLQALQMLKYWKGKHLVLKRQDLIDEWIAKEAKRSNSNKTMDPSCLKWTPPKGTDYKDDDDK
Procedure, shortened: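 KAT-7 (6 nM) was pre-incubated with serially diluted compound (2% DMSO) in Tris pH 8.0 with DTT. Reaction with 1 μM peptide and 2 μM acetyl-CoA ran 120 min at 25 °C and was stopped with 0.5% formic acid. Acetylation was read by SAMDI-TOF mass spectrometry to give IC50.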

KAT-8 = KAT-8 (Homo sapiens (Human), UniProt Q9H7Z6); assay: KAT-8 biochemical inhibition assay (SAMDI mass spectrometry)
KAT-8, sequence (Q9H7Z6 other isoform, or with tags, fused parts or gaps): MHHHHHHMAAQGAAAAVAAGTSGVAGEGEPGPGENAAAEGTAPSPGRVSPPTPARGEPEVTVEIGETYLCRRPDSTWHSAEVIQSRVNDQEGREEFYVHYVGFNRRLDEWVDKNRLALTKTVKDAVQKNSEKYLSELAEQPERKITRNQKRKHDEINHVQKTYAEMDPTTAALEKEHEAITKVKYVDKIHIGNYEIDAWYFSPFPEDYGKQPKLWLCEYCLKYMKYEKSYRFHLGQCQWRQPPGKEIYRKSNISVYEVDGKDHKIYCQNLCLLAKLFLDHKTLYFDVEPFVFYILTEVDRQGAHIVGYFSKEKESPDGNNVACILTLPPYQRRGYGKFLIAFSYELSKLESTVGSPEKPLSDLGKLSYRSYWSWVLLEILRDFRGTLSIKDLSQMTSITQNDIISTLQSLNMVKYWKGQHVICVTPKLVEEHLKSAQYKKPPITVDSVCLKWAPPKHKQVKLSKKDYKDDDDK
Procedure, shortened: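 Compounds in 2% DMSO pre-incubated with 12.5 nM enzyme in 50 mM Tris pH 8.0 with Tween20, gelatin and 1 mM DTT. Then 1 μM peptide and 5 μM acetyl-CoA were added, 90 min at 25 °C; formic acid stop and SAMDI-TOF mass spectrometry for IC50.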

KAT-5 = KAT-5 (Homo sapiens (Human), UniProt Q92993); assay: KAT-5 biochemical inhibition assay (SAMDI mass spectrometry)
KAT-5, sequence (Q92993 other isoform, or with tags, fused parts or gaps): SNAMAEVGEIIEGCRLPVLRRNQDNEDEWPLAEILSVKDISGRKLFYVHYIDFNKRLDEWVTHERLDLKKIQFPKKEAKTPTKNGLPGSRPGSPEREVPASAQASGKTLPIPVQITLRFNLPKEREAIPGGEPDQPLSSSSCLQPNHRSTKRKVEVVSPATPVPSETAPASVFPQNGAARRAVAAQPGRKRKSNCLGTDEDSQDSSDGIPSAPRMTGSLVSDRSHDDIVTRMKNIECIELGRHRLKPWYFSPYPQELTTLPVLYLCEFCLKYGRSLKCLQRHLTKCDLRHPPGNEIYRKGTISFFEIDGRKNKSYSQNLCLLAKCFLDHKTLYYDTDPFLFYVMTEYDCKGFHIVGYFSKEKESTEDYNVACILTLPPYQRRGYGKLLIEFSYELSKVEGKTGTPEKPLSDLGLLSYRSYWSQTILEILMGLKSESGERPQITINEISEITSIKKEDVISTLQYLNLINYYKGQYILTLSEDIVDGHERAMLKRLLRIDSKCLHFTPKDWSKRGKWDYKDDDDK
Procedure, shortened: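 KAT-5 at 9 nM final was preincubated with serially diluted compound (2% DMSO) in 50 mM Tris pH 8.0 with 1 mM DTT. Reaction ran with 1 μM peptide substrate and 0.5 μM acetyl-CoA for 90 min at 25° C, was quenched with 0.5% formic acid, and was read by SAMDI-TOF mass spectrometry.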

KAT-6A, sequence (Q92794 other isoform, or with tags, fused parts or gaps): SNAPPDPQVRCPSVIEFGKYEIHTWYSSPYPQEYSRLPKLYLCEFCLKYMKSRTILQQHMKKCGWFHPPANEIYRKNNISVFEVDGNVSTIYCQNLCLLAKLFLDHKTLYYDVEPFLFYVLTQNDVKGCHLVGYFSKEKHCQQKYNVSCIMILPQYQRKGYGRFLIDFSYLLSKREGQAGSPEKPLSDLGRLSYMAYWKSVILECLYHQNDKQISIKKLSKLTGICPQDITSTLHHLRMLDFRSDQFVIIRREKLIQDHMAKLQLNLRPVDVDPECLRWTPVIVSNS

IC50 (KAT-6A) | IC50 (KAT-7) | IC50 (KAT-8) | IC50 (KAT-5) | SMILES
10 to 50 µM | < 10 µM | 10 to 50 µM | < 10 µM | CNC(=O)N1CC[C@@H](CS(=O)(=O)NNC(=O)c2cc(-c3cn(C)cn3)cc(Cl)c2F)C1 [Compound I-209]
< 10 µM | < 10 µM | 10 to 50 µM | < 10 µM | CCNC(=O)N[C@@H]1CCC[C@@H](CS(=O)(=O)NNC(=O)c2cc(-c3cn(C)cn3)cc(Cl)c2F)C1 [Compound I-355]
10 to 50 µM | < 10 µM | 10 to 50 µM | 10 to 50 µM | CC(=O)N[C@H]1C[C@H](CS(=O)(=O)NNC(=O)c2cc(-c3cn(C)cn3)cc(Cl)c2F)C1 [Compound I-125]
< 10 µM | < 10 µM | > 100 µM | < 10 µM | CC(=O)N1CCCC(CS(=O)(=O)NNC(=O)c2cc(-c3cn(C)cn3)cc(Cl)c2F)C1 (centres unmarked) [Compound I-10]
< 10 µM | < 10 µM | 10 to 50 µM | < 10 µM | CC(=O)N[C@H]1CC[C@H](CS(=O)(=O)NNC(=O)c2cc(-c3cn(C)cn3)cc(Cl)c2F)CC1 [Compound I-101]
< 10 µM | < 10 µM | 10 to 50 µM | < 10 µM | CC1CCCCC1CS(=O)(=O)NNC(=O)c1cc(-c2cn(C)cn2)cc(Cl)c1F (centres unmarked) [Compound I-335]
< 10 µM | < 10 µM | 10 to 50 µM | < 10 µM | Cn1cnc(-c2cc(Cl)c(F)c(C(=O)NNS(=O)(=O)CC3CCCCC3)c2)c1 [Compound I-51, N′-(3-chloro-2-fluoro-5-(1-methyl-1H-imidazol-4-yl)benzoyl)-1-cyclohexyl methanesulfonohydrazide]
10 to 50 µM | < 10 µM | > 100 µM | 10 to 50 µM | Cn1cnc(-c2cc(Cl)c(F)c(C(=O)NNS(=O)(=O)C3CCOCC3)c2)c1 [Compound I-9]
10 to 50 µM | < 10 µM | 10 to 50 µM | 10 to 50 µM | Cn1cnc(-c2cc(Cl)c(F)c(C(=O)NNS(=O)(=O)C[C@H]3C[C@@H](N)C3)c2)c1 [Compound I-113]
10 to 50 µM | < 10 µM | 10 to 50 µM | 10 to 50 µM | Cn1cnc(-c2cc(Cl)c(F)c(C(=O)NNS(=O)(=O)C[C@@H]3CCNC3)c2)c1 [Compound I-120]
< 10 µM | < 10 µM | 10 to 50 µM | < 10 µM | CCC(=O)N[C@H]1CC[C@@H](CS(=O)(=O)NNC(=O)c2cc(-c3cn(C)cn3)cc(Cl)c2F)CC1 [Compound I-221]
10 to 50 µM | < 10 µM | 10 to 50 µM | < 10 µM | Cn1cnc(-c2cc(Cl)c(F)c(C(=O)NNS(=O)(=O)C[C@@H]3CCOC3)c2)c1 [Compound I-372]
< 10 µM | < 10 µM | > 100 µM | < 10 µM | Cn1cnc(-c2cc(Cl)c(F)c(C(=O)NNS(=O)(=O)CC3CCOCC3)c2)c1 [Compound I-1]
< 10 µM | < 10 µM | 10 to 50 µM | < 10 µM | CC(C1CCCCC1)S(=O)(=O)NNC(=O)c1cc(-c2cn(C)cn2)cc(Cl)c1F (centres unmarked) [Compound I-256]
< 10 µM | < 10 µM | 10 to 50 µM | < 10 µM | CNC(=O)NC1CCC(CS(=O)(=O)NNC(=O)c2cc(-c3cn(C)cn3)cc(Cl)c2F)C1 (centres unmarked) [Compound I-360]
< 10 µM | < 10 µM | 10 to 50 µM | < 10 µM | Cn1cnc(-c2cc(Cl)c(F)c(C(=O)NNS(=O)(=O)C[C@H]3C[C@H]4CC[C@@H]3O4)c2)c1 [Compound I-298]

The next lines start with the molecule.

SMILES | IC50 (KAT-6A) | IC50 (KAT-7) | IC50 (KAT-8) | IC50 (KAT-5)
Cn1cnc(-c2cc(Cl)c(F)c(C(=O)NNS(=O)(=O)C[C@H]3CC[C@H](NC(=O)Cc4cccnc4)CC3)c2)c1 [Compound I-258] | < 10 µM | < 10 µM | 10 to 50 µM | < 10 µM
Cn1cnc(-c2cc(Cl)c(F)c(C(=O)NNS(=O)(=O)C[C@H]3CC[C@H](NC(=O)C4CCC4)CC3)c2)c1 [Compound I-196] | < 10 µM | < 10 µM | 10 to 50 µM | < 10 µM
CCS(=O)(=O)N1CCC(CS(=O)(=O)NNC(=O)c2cc(-c3cn(C)cn3)cc(Cl)c2F)C1 (centres unmarked) [Compound I-75] | < 10 µM | < 10 µM | 10 to 50 µM | < 10 µM
Cn1cnc(-c2cc(Cl)c(F)c(C(=O)NNS(=O)(=O)CC3CCC4CCC3N4)c2)c1 (centres unmarked) [Compound I-251] | 10 to 50 µM | < 10 µM | 10 to 50 µM | 10 to 50 µM
Cn1cc(-c2cc(Cl)c(F)c(C(=O)NNS(=O)(=O)CC3CCOCC3)c2)cn1 [Compound I-16] | > 100 µM | < 10 µM | > 100 µM | 10 to 50 µM
Cn1cnc(-c2cc(Cl)c(F)c(C(=O)NNS(=O)(=O)c3cccc(OCc4ccccc4)n3)c2)c1 [Compound I-375] | < 10 µM | < 10 µM | 10 to 50 µM | < 10 µM
COCCNC(=O)N1CCCC(CS(=O)(=O)NNC(=O)c2cc(-c3cn(C)cn3)cc(Cl)c2F)C1 (centres unmarked) [Compound I-217] | < 10 µM | < 10 µM | 10 to 50 µM | < 10 µM
CCNC(=O)N1[C@H]2CC[C@H](CS(=O)(=O)NNC(=O)c3cc(-c4cn(C)cn4)cc(Cl)c3F)[C@@H]1CC2 [Compound I-265] | < 10 µM | < 10 µM | 10 to 50 µM | < 10 µM
Cn1cnc(-c2cc(Cl)c(F)c(C(=O)NNC3CCS(=O)(=O)C3)c2)c1 (centres unmarked) [Compound I-232] | 10 to 50 µM | 10 to 50 µM | 10 to 50 µM | 10 to 50 µM
CC(C)NC(=O)N1CC(CS(=O)(=O)NNC(=O)c2cc(-c3cn(C)cn3)cc(Cl)c2F)C1 [Compound I-204] | 10 to 50 µM | < 10 µM | 10 to 50 µM | 10 to 50 µM
O=C(NNS(=O)(=O)CC1CCOCC1)c1cc(-c2cscn2)cc(Cl)c1F [Compound I-48] | < 10 µM | < 10 µM | > 100 µM | < 10 µM
CCn1cc(-c2cc(C)c(F)c(C(=O)NNS(=O)(=O)C3CCCCC3)c2)cn1 [Compound I-154] | > 100 µM | < 10 µM | > 100 µM | 10 to 50 µM
Cn1cnc(-c2cc(Cl)c(F)c(C(=O)NNS(=O)(=O)C[C@H]3CC[C@H](NC(=O)c4ccccn4)CC3)c2)c1 [Compound I-245] | < 10 µM | < 10 µM | 10 to 50 µM | < 10 µM
COCCn1cnc(-c2cc(C)c(F)c(C(=O)NNS(=O)(=O)CC3CCCN(C(=O)COC)C3)c2)c1 (centres unmarked) [Compound I-137] | 50 to 100 µM | 10 to 50 µM | > 100 µM | 10 to 50 µM
CCNC(=O)N(C)C1CCCC(CS(=O)(=O)NNC(=O)c2cc(-c3cn(C)cn3)cc(Cl)c2F)C1 (centres unmarked) [Compound I-293] | < 10 µM | < 10 µM | 10 to 50 µM | < 10 µM
Cn1cnc(-c2cc(Cl)c(F)c(C(=O)NNS(=O)(=O)CC3CCN(S(=O)(=O)C4CCC4)C3)c2)c1 (centres unmarked) [Compound I-106] | < 10 µM | < 10 µM | 10 to 50 µM | < 10 µM
Cc1cc(-c2cn(CCO)cn2)cc(C(=O)NNS(=O)(=O)C2CCOCC2)c1F [Compound I-143] | 50 to 100 µM | 50 to 100 µM | > 100 µM | 50 to 100 µM
Cc1cc(-c2cn(C)cn2)cc(C(=O)NNS(=O)(=O)CC2CCCCC2)c1C [Compound I-145] | > 100 µM | 10 to 50 µM | > 100 µM | > 100 µM
Cc1nc(-c2cc(Cl)c(F)c(C(=O)NNS(=O)(=O)CC3CCOCC3)c2)co1 [Compound I-80] | < 10 µM | 10 to 50 µM | 10 to 50 µM | 10 to 50 µM
Cc1ncn(-c2cc(Cl)c(F)c(C(=O)NNS(=O)(=O)CC3CCOCC3)c2)n1 [Compound I-74] | 10 to 50 µM | 10 to 50 µM | 10 to 50 µM | 10 to 50 µM
Cn1cnc(-c2cc(Cl)c(F)c(C(=O)NNS(=O)(=O)C[C@H]3C[C@@H](NC(=O)OC(C)(C)C)C3)c2)c1 [Compound I-114] | < 10 µM | < 10 µM | 10 to 50 µM | < 10 µM
COc1ccc(CNC(=O)N2CCC(CS(=O)(=O)NNC(=O)c3cc(-c4cn(C)cn4)cc(Cl)c3F)C2)cc1 (centres unmarked) [Compound I-181] | < 10 µM | < 10 µM | 10 to 50 µM | < 10 µM
COc1ccc(CN(C)C(=O)N2CC[C@@H](CS(=O)(=O)NNC(=O)c3cc(-c4cn(C)cn4)cc(Cl)c3F)C2)cc1 [Compound I-179] | < 10 µM | < 10 µM | 10 to 50 µM | < 10 µM
Cn1cnc(-c2cc(Cl)c(F)c(C(=O)NNS(=O)(=O)C[C@H]3CC[C@H]4CC[C@@H]3N4)c2)c1 [Compound I-261] | 10 to 50 µM | 10 to 50 µM | 10 to 50 µM | 10 to 50 µM
CN1CCN([C@H]2C[C@@H](CS(=O)(=O)NNC(=O)c3cc(-c4cn(C)cn4)cc(Cl)c3F)C2)C1=O [Compound I-325] | < 10 µM | < 10 µM | 10 to 50 µM | < 10 µM
